Data from patent publication US20240315992A1, “AMINOXY ACID-BASED ANTIBACTERIAL COMPOUNDS AND METHODS THEREOF” (The University of Hong Kong, priority 2023, published 2024).

How the values were obtained:
[1] = system: virulence proteins of Staphylococcus aureus ATCC 29213; experiment: Secretome analysis of virulence proteins; type: cell-based; details: 1.56 μM (0.5×MIC), 1.5 hours, supernatant
Description: The red dots represented proteins which were annotated as “Virulence” and “Secrete/extracellular” as subcellular location by UniprotKB. The curve is derived at FDR=0.05 and s0=0.1.
S. aureus ATCC 29213 cells were sub-cultured from an overnight culture to OD595 0.1 and then cultured for 5 hours at 37° C., 250 rpm. Cells were concentrated by centrifugation (3,000×g, 4° C., 15 minutes), washed with 1×PBS and resuspended in CAMH to give OD595 1.5. […] Cells were then concentrated by centrifugation (3,000×g, 15 minutes and 6,000×g, 5 minutes). The supernatant was filtered (0.2 μm) and then concentrated by Amicon Ultra 10 KDa filter. Protein concentration was quantified by Bradford assay.
To quench the reaction, dithiothreitol (12.5 mM; 25° C., 200 rpm) was added for 30 minutes. Endoprotinase LysC was subsequently added (Enzyme: protein ratio 1:200; 25° C., 700 rpm) for 2 hours. The samples were diluted 1:5 by 50 mM ammonium bicarbonate buffer and further digested by trypsin (Enzyme: protein ratio 1:20; 37° C.) for 16 hours. The reaction was quenched by the addition of formic acid until pH reached 2-3. Samples were then submitted to the HKU proteomics and metabolomics core facility for analysis.
The peptides were desalted using C18 StageTips. Eluted peptides were analyzed with nanoelute UPLC was coupled to Bruker TimsTOF Pro mass spectrometer. […]

[2] = system: Staphylococcus aureus ATCC29213 Δatl, ΔSAOUHSC_02855 and ΔSAOUHSC_01895; experiment: Bactericidal activity in autolysin deletion mutants; type: cell-based; details: 4×MIC (12.5 μM), 24 hours, compared to wild type
Description: FIG. 15 is the bar graph showing the reduction of bactericidal effect of compound 8 in autolysin deletion mutants of Staphylococcus aureus. Staphylococcus aureus ATCC29213 WT, Staphylococcus aureus ATCC 29213, Δatl, ΔSAOUHSC_02855 and ΔSAOUHSC_01895 was incubated with 4×MIC compounds 8 for 24 hours. 10 μL bacteria were serial diluted and spotted on Mueller Hinton Agar. Colonies were enumerated next day. Data represented the mean±S.D. of biological triplicates. Statistical analysis was performed by unpaired t test compared to wild type in 95% confidence interval (*p<0.05; **p<0.01).
Target DNA upstream 1 kb and downstream 1 kb were PCR amplified from Staphylococcus aureus genomic DNA. The two DNA inserts were ligated to fuse upstream and downstream DNA fragments by overlap PCR. The ligated PCR product was cloned to pKOR1 plasmid using Vazyme ClonExpress®II One Step Cloning Kit, and transformed into Escherichia. coli top 10, plated on LBA containing ampicillin (100 μg/mL), and incubated under 30° C. overnight. Colony PCR was performed with Sanger sequencing for selection of transformants. The plasmid DNA was extracted and subsequently transformed into Staphylococcus aureus RN4220 and ATCC 29213 in TSA containing chloramphenicol (10 μg/mL). […]

CC(C)C[C@H](ONC(=O)[C@@H](COCc1ccccc1)ONC(=O)c1cc(C(F)(F)F)cc(C(F)(F)F)c1)C(=O)Nc1ccccc1 [Compound 8]
secretion of the virulence proteins [1]: can reduce the secretion of the virulence proteins | bactericidal activity in autolysin deficient Staphylococcus aureus [2]: diminished bactericidal activity
